According to patent US12269816B2, “Benzothiophene compound, preparation method therefor and use thereof” (SICHUAN KELUN-BIOTECH BIOPHARMACEUTICAL CO., LTD., priority 2019, dated 2025):

Experiments:
[1] = test system: STING pathway cytokine hIFN-β in human THP-1 cells; experiment: ELISA of STING pathway cytokine hIFN-β expression in human THP-1 cells; format: cell-based; settings: for EC50: hIFN-β expression; for EC50 / Emax: 8 hours, ELISA; for Emax: highest expression of hIFN-β; for agonistic effect on the expression of hIFN-β: result in words
Source text: In this experiment, the expression of STING signal pathway cytokine hIFN-β was detected in THP1 cells (Nanjing Cobioer) by the ELISA method, so as to evaluate the agonistic effect of the compounds to be tested on the expression of STING pathway cytokine hIFN-β at the cellular level.
THP1 cells (Nanjing Cobioer) in the logarithmic phase were centrifuged, and resuspended in a cell culture solution to a density of 8×10^6 cells/ml. The cell suspension was inoculated into a 24-well cell culture plate (Corning) at 250 μL/well.
The mother liquor of the compound to be tested was diluted with a cell culture solution to obtain a 2× working concentration diluted solution (control compounds 1 and 2 were diluted at a 2-fold gradient: 200, 100, 50, 25, 12.5, 6.25, 3.125, 1.5625 and 0 μM; and compounds 4, 6, and 8 were diluted at a 3-fold gradient: 200, 66.67, 22.22, 7.41, 2.47, 0.82, 0.27, 0.091 and 0 μM). The 2× working concentration diluted solution of the compound was added into 24-well plate (250 μl of the culture solution containing 2% DMSO was added into the negative control well) at 250 μL/well. The culture plate was placed in a cell culture incubator, and incubated for 8 hours. After the cell incubation, the supernatant was collected by centrifugation at 300 g×5 min, and the hIFN-β content (pg/ml) in the cell culture supernatant was detected according to the operating instructions of the VeriKine Human […] ELISA kit from PBL (obtained by conversion of the […] absorbance-hIFN-β standard concentration standard curve and the OD450 nm absorbance value read by the microplate reader). […] was calculated through log(agonist) vs. response—Variable slope fitting by the Graphpad Prism software, and the experimental results are shown in Table 2.
In the table, EC50 refers to the concentration of a compound when the expression of hIFN-β generated by stimulation of the compound reaches half of Emax and Emax refers to the highest expression of hIFN-β generated by stimulation of the compound.

[2] = test system: STING and its downstream proteins TBK1 and IRF3 in Raw264.7 cells; experiment: Western blotting of phosphorylation of STING signal pathway proteins in mouse Raw264.7 cells; format: cell-based; settings: 3 hours, protein blotting, FIGS. 6-7, result in words
Source text: In this experiment, the changes in the phosphorylation levels of STING and its downstream proteins TBK1 (TANK-binding kinase 1) and IRF3 (interferon regulatory factor 3) were detected by protein blotting to evaluate the agonistic effect of the test compounds on the STING signal pathway at the cellular level.
The Raw264.7 cells in the logarithmic phase were centrifuged, and resuspended in a cell culture solution to a density of 1.6×10^6 cells/mL. The cell suspension was inoculated into a 6-well cell culture plate (Corning) at 1 mL/well. The compound to be tested was diluted with a cell culture solution to 2× working solution concentration (control compounds 1 and 2: 60 μM; compound 8: 0.6 μM, 6 μM, and 60 μM; compounds 2, 4 and 6: 6 μM, 20 μM, and 60 μM). 1 mL of the diluted solution of the compound was added into a 6-well plate (1 mL of the culture solution containing 2% DMSO was added into the negative control well). The plate was placed in a cell incubator, and incubated for 3 hours. After the incubation, the cells were collected by centrifugation, lysed with 60 μL cell lysis buffer (CST) for 30 minutes, and centrifuged at 12000 rpm for 15 minutes. The supernatant was collected to determine the protein concentration, and then an appropriate amount of 5× protein loading buffer was added. The mixture was heated at 95° C. for 10 minutes to prepare a protein electrophoresis sample. Finally, protein blotting was performed to detect the phosphorylation level of the corresponding protein. The primary antibodies used in the protein blotting were purchased from CST: STING (D2P2F) rabbit mAb, Phospho-STING (Ser365) rabbit mAb, Phospho-IRF3 (Ser396) (D601M) rabbit mAb, IRF3 (D83B9) rabbit mAb, TBK1/NAK (D1B4) rabbit mAb, Phospho-TBK1/NAK (Ser172) (D52C2) XPV rabbit mAb, GAPDH (D16H11) rabbit mAb; and the secondary antibody horseradish peroxidase-conjugated goat anti-rabbit IgG (H+L) was purchased from Zsgb-bio.

hSTING protein = molecular target: T1, hSTING protein (Homo sapiens, UniProt Q86WV6); experiment: Human STING binding kit (HTRF) competitive binding assay; settings: for Ki: calculated as Ki=1/2*IC50 per kit instructions; for IC50: competition with d2-STING-ligand for 6×His-hSTING, HTRF, 3 h at 25° C.; for binding affinity to the hSTING protein: result in words
T1 construct: purchased Cisbio
Source text: In this experiment, the capability of the compound and the specific ligand (d2-STING-ligand) in a Human STING binding kit from Cisbio for competitively binding to the 6×His-hSTING protein was detected using the Human STING binding kit (HTRF method), so as to evaluate the binding affinity between the compound to be tested and the hSTING protein.
The compound was gradiently diluted with a dilution buffer in the Human STING binding kit (the diluent buffer reagent) to obtain a 4× working concentration diluted solution. […] The 6×His-hSTING protein (50× in the mother liquor) was diluted to 1× with the detection buffer in the Human STING binding kit (the detection buffer reagent). 5 μl of the diluted solution was added into the corresponding wells of a 384-well plate, and the well with no protein and no compound was set as a negative control well (min), while the well with the protein and no compound was set as a positive control well (max). The d2-STING-ligand and Tb^3+-anti-6×His-antibody (both 50× in the mother liquor) were diluted to 1× with the detection buffer in the Human STING binding kit (the detection buffer reagent), and mixed uniformly at a ratio of 1:1. 10 μl of the mixed solution was added to the corresponding wells of a 384-well plate. The plate was sealed and incubated at room temperature (25° C.) for 3 h. A BMG microplate reader was used to read HTRF, and the ratio was calculated according to the following formula: Ratio=signal665nm/signal620nm×10000. […] IC50 was calculated through log(inhibitor) vs. response—Variable slope fitting by the Graphpad Prism software.

T1 sequence (Q86WV6 whole entry H232R): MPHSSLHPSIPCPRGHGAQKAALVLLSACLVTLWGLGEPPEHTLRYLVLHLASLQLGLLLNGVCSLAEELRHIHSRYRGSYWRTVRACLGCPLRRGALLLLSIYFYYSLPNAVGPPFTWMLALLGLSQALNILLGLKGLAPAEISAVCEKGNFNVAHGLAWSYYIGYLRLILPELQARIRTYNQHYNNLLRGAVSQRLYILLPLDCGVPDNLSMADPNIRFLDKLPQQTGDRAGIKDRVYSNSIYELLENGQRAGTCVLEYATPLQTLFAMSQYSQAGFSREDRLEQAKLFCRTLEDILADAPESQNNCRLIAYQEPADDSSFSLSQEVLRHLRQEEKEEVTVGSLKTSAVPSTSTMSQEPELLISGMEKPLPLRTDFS

Row | EC50 [1] | Ki (hSTING protein) | IC50 (hSTING protein) | binding affinity to the hSTING protein (hSTING protein) | SMILES | Emax [1] | agonistic effect on the expression of hIFN-β [1] | agonistic effect on the phosphorylation levels of STING, TBK1 and IRF3 [2]
1 | 5570 nM | 16.1 nM | 32.2 nM | strong binding affinity | COc1cc2sc(C(=O)N(C)CCC(=O)O)cc2cc1OCCCOc1cc2sc(C(=O)CCC(=O)O)cc2cc1OC [Compound 4, 4-(6-(3-((2-((2-carboxyethyl)(methyl)carbamoyl)-6-methoxybenzo[b]thiophen-5-yl)oxy)propoxy)-5-methoxybenzo[b]thiophen-2-yl)-4-oxobutanoic acid] | 908.0 pg/mL | strong agonistic effect | strong agonistic effects
2 | 1820 nM | 4.55 nM | 9.1 nM | strong binding affinity | COc1cc2sc(C(=O)CCC(=O)O)cc2cc1OCCCOc1cc2sc(C(=O)N(C)CCC(=O)O)cc2cc1OC [Compound 6, 4-(5-(3-((2-((2-carboxyethyl)(methyl)carbamoyl)-5-methoxybenzo[b]thiophen-6-yl)oxy)propoxy)-6-methoxybenzo[b]thiophen-2-yl)-4-oxobutanoic acid] | 829.6 pg/mL | strong agonistic effect | strong agonistic effects
3 | 1250 nM | 0.069 nM | 0.139 nM | strong binding affinity | COc1cc2sc(C(=O)CCC(=O)O)cc2cc1OCCCOc1cc2cc(C(=O)N(C)CCC(=O)O)sc2cc1OC [Compound 8, 4-(5-(3-((2-((2-carboxyethyl)(methyl)carbamoyl)-6-methoxybenzo[b]thiophen-5-yl)oxy)propoxy)-6-methoxybenzo[b]thiophen-2-yl)-4-oxobutanoic Acid] | 917.1 pg/mL | strong agonistic effect | strong agonistic effects
